The results in this text go back to patent publication US7655696B2, “Anti-tumor composition” (Ajinomoto Co., Inc., priority 1998, dated 2010).

For data set [1] the following is noted: for Rate of Body Weight Change: 21st day vs 7th day; for Body weight decrease, in words: in combination with Cisplatin. How it is done:
Methodology. 10 mg of a murine colonic tumor, colon 26, was inoculated under the skin of the back of CDF1 mice (day 0). After one week, the tumor was measured to calculate the volume of the tumor and the mice were classified into several groups (each group: n=5) and administration of the stilbene derivative and Cisplatin was started. On days 7, 11 and 15, the tumor-inoculated mice were bolusly injected under the skin of their backs and into their tail veins with 1 mg of the stilbene derivative of formula (3) in 1 ml of physiological saline solution and 0.5 mg of Cisplatin (“randa Inj”) in a volume of 1 ml. Control and comparative groups of mice were similarly injected with the other drug combinations described in Table 1. The comparative drug Vindesine is an antitumor drug used in combination with Cisplatin by Garalla et al. VP-16 is also a chemotherapeutic drug which is often used clinically in combination with Cisplatin.
As indicated in Table 1 the term [−CDDP] means that Cisplatin was not administered at all. The term [+CDDP] means that Cisplatin was administered in an amount of 5 mg/kg/day. The term [n.d.] means that no testing was performed.
Safety. The rate of body weight change was used as a measure of safety as significant loss of body weight is undesirable in cancer patients. Body weight change was calculated using the following equation: Rate of body weight change (%)=[{(body weight−weight of the tumor) at the 21st day}−{(body weight−weight of the tumor) at the 7th day}]/{body weight−weight of the tumor) at the 7th day}×100.
Using the above equation, the rate of body weight change at the 21st day was calculated.

A short description of data set [2]: Solubility in water (statement).
The nature of data set [3]: Safety Tests (2) and (3): rate of body weight change in colon 26 tumor-bearing CDF1 mice (Example 2). In kind it is in vivo. The settings on record: 21st day vs 7th day. The method, then:
(§1) Stilbene derivatives of formulas (3), (4) and (5), and Cisplatin and Carboplatin were bolusly injected into the tail vein on the 7th, 11th and 15th days as described in Tables 3 through 6 below.
(§2) The terms: [+CBDCA] and [+CDDP] indicate that 50 mg/kg/day of carboplatin or 5 mg/kg/day of cisplatin were administered, respectively. The terms: [−CBDCA] and [−CDDP] indicate that no carboplatin or cisplatin were administered. The dosages of cisplatin and carboplatin denote the maximum dosages without death due to toxicity in the administration schedule in the present embodiment.
Body weight change on the 21st day was calculated using the equation described in Example 1.

Data set [4] has as its system murine colonic tumor, colon 26. Nature of the data set: Antitumor Activity Test (1): complete regression of colon 26 tumor in CDF1 mice (Example 1). In kind it is in vivo. The note with it: for Number of instances of complete regression of tumors: palpation on 60th day; for Complete regression (curing) of tumors in mice, in words: in combination with Cisplatin. How it is done:
Antitumor effects: Complete regression of the colonic tumor was determined by palpation. Subjects in which the tumor has not been ascertained by palpation on the 60th day were deemed to have their tumors cured completely.

For data set [5], the system named is colonic tumor of mouse, colon 26. Kind of data set: Antitumor Activity Tests (2) and (3): complete regression of colon 26 tumor in CDF1 mice (Example 2). It counts as in vivo. The settings on record: palpation on 60th day. The method, then: as §1
Antitumor effects: Complete regression of the colonic tumor was determined by palpation. Subjects in which the tumor had not been ascertained by palpation on the 60th day were deemed to have their tumors completely cured.
as §2

[6] abbreviates: +CDDP (cisplatin 5 mg/kg/day), sample 5 mg/kg/day.
The mark [7] stands for this setting: Control, +CBDCA: carboplatin alone 50 mg/kg/day.
Setting [8] is: Control, +CDDP: cisplatin alone 5 mg/kg/day.

“Also recorded” adds a separate entry of the source. Read-outs that look alike come from different tables or passages of the source.

`COc1ccc(/C=C\c2cc(OC)c(OC)c(OC)c2)cc1NC(=O)C(N)CO` [Compound (3), (Z)-1-(3-amino-4-methoxyphenyl)-2-(3,4,5-trimethoxyphenyl)-ethene-L-serine amide]: the “Rate of Body Weight Change” value in data set [1] (+CDDP (Cisplatin 5 mg/kg/day), sample 10 mg/kg/day) was −1.9%; in data set [1] (setting [6]) it was −4.2%; in data set [1] (−CDDP, sample 10 mg/kg/day, tumor weight subtracted) it was −7.7%; in data set [3] (+CBDCA (carboplatin 50 mg/kg/day), sample 20 mg/kg/day) it was 1.8%; in data set [3] (−CBDCA, sample 20 mg/kg/day), −7.4%. For the same compound, the “Body weight decrease, in words” value in data set [1] is given as “did not cause significant decreases in body weight”. In addition, the “Solubility in water, in words” value in data set [2] is given as “soluble in water”. Also, the “Number of instances of complete regression of tumors” value (“Number” below) in data set [4] (+CDDP (Cisplatin 5 mg/kg/day), sample 5 mg/kg/day on days 7, 11, 15) is recorded as 1/5; in data set [4] (+CDDP (Cisplatin 5 mg/kg/day), sample 10 mg/kg/day on days 7, 11, 15) it was 4/5; in data set [4] (−CDDP, sample 10 mg/kg/day on days 7, 11, 15) it was 0/5; in data set [5] (+CBDCA (carboplatin 50 mg/kg/day), sample 20 mg/kg/day, tail vein, 7th, 11th, 15th days), 1/6; in data set [5] (−CBDCA, sample 20 mg/kg/day, tail vein, 7th, 11th, 15th days), 0/6.

As to `CC[C@]1(O)C[C@@H]2CN(CCc3c([nH]c4ccccc34)[C@@](C(=O)OC)(c3cc4c(cc3OC)N(C)[C@H]3[C@@](O)(C(N)=O)[C@H](O)[C@]5(CC)C=CCN6CC[C@]43[C@@H]65)C2)C1` [Vindesine], in data set [4] (+CDDP (Cisplatin 5 mg/kg/day), sample 2 mg/kg/day on days 7, 11, 15), the “Number” value is 0/5. The “Complete regression (curing) of tumors in mice, in words” value in data set [4] is “complete curing of tumors in mice has not been observed; also recorded: complete tumor regression was not observed”.

For `COc1cc([C@@H]2c3cc4c(cc3[C@@H](O[C@@H]3O[C@@H]5CO[C@@H](C)O[C@H]5[C@H](O)[C@H]3O)[C@H]3COC(=O)[C@H]23)OCO4)cc(OC)c1O` [VP-16, reference compound], the “Rate of Body Weight Change” value is listed as −9.9% in data set [1] (+CDDP (Cisplatin 5 mg/kg/day), sample 30 mg/kg/day) and −1.0% in data set [1] (−CDDP, sample 30 mg/kg/day). The “Body weight decrease, in words” value in data set [1] is “high rates of body weight loss”. For the same compound, the “Number” value is on record as 0/5 in data set [4] (+CDDP (Cisplatin 5 mg/kg/day), sample 30 mg/kg/day on days 7, 11, 15) and 0/5 in data set [4] (−CDDP, sample 30 mg/kg/day on days 7, 11, 15). Besides, in data set [4], the “Complete regression (curing) of tumors in mice, in words” value is “complete tumor regression was not observed”.

For `COc1ccc(/C=C\c2cc(OC)c(OC)c(OC)c2)cc1N` [Compound (5)], the “Rate of Body Weight Change” value in data set [3] (+CDDP (cisplatin 5 mg/kg/day), sample 20 mg/kg/day) is reported as −0.3%; in data set [3] (−CDDP, sample 20 mg/kg/day), −2.1%. Further, the “Number” value is listed as 6/6 in data set [5] (+CDDP (cisplatin 5 mg/kg/day), sample 20 mg/kg/day, tail vein, 7th, 11th, 15th days) and 0/6 in data set [5] (−CDDP, sample 20 mg/kg/day, tail vein, 7th, 11th, 15th days).

For the compound `[NH2][Pt]1([NH2])[O]C(=O)C2(CCC2)C(=O)[O]1` [CBDCA, diammine(1,1-cyclobutane dicarboxylate) platinum (II), reference compound], the “Rate of Body Weight Change” value in data set [3] (setting [7]) was −9.6%. In data set [5] (setting [7]), the “Number” value is listed as 0/6.

On to `COc1ccc(/C=C(/C#N)c2cc(OC)c(OC)c(OC)c2)cc1N` [Compound (4)], for which the “Rate of Body Weight Change” value in data set [3] (setting [6]) is −13.9%; in data set [3] (−CDDP, sample 5 mg/kg/day) it was −7.0%. The “Number” value is on record as 4/6 in data set [5] (+CDDP (cisplatin 5 mg/kg/day), sample 5 mg/kg/day, tail vein, 7th, 11th, 15th days) and 0/6 in data set [5] (−CDDP, sample 5 mg/kg/day, tail vein, 7th, 11th, 15th days).

As for `N.N.[Cl][Pt][Cl]` [CDDP, cis-diamminedichloroplatinum (II), reference compound], the “Rate of Body Weight Change” value in data set [1] (setting [8]) was −11.1%; in data set [3] (setting [8]) it was −11.4%. Also, the “Number” value in data set [4] (Control, +CDDP: Cisplatin alone 5 mg/kg/day on days 7, 11, 15) is recorded as 0/5; in data set [5] (setting [8]), 0/6.
